Earlier results, collected in patent US20100273258A1, “Interactive Microenvironment System” (The Ohio State University, priority 2009, published 2010).

Key:
[1] = test system: human breast cancer cell lines
[2] = test system: DNA methylation of cancer suppressor genes; conditions: versus 5-Aza-2′-deoxycystidine and Trichostatin A (TSA)

| SMILES | anti-human breast cancer proliferative potency relative to racemic (±)-GP ([1]; previously published data) | demethylating agent compared with clinical drugs [2] | anti-proliferative effects ([1]; MCF-7, MCF-7Adr and MDA-MB-231 human breast cancer cell lines) |
| --- | --- | --- | --- |
| Cc1cc2c(C(C)C)c(O)c(O)c(C=O)c2c(O)c1-c1c(C)cc2c(C(C)C)c(O)c(O)c(C=O)c2c1O [(−)-GP] | 10 fold | much better demethylating agent | – |
| Cc1cc2c(C(C)C)c(O)c(O)c(C=O)c2c(O)c1-c1c(C)cc2c(C(C)C)c(O)c(O)c(C=O)c2c1O (racemic) [(±)-GP] | – | – | anti-proliferative effects |
